Measured values: patent publication US20230391792A1, “METHODS AND COMPOSITIONS FOR TARGETED PROTEIN DEGRADATION” (Ranok Therapeutics (Hangzhou) Co. Ltd., priority 2020, published 2023)
pIC50: −log10 of the molar value.

Each compound was assayed against T1, HSP90α protein (N-terminal) (Homo sapiens, UniProt P07900) (assay: HSP90α-binding fluorescent polarization (FP) assay, competition with FITC-geldanamycin). Conditions: probe FITC-geldanamycin 5 nM, 25° C. 120 min.
T1 construct: purchased BPS Bioscience #50298
Method: (§1) Binding of test compounds to HSP90α protein was measured by fluorescent polarization (FP) using the HSP90α (N-terminal) Assay Kit (BPS Bioscience, #50298), following the manufacturer's instructions, except as noted. Fluorescently labeled HSP90-binding compounds, either the provided FITC-geldanamycin (5 nM final concentration) or RNK04010, a triazolone-based HSP90-binding small molecule labeled with BODIPY through a piperizine-phenyl linker (5 nM final concentration) were employed. A 2.5-fold serial dilution of each test compound ranging from 20 μM to 5.2 nM was assayed for binding to HSP90α. After the final step of adding HSP90α protein to each assay well, plates were mixed by brief shaking, incubated at 25° C. for 120 min for FITC-geldanamycin or 300 min for RNK04010, and fluorescence was measured using a PerkinElmer EnVision Plate Reader.
(§2) HSP90α-binding fluorescent polarization (FP) assays measuring competition with the fluorescently labeled HSP90 binders, FITC-geldanamycin or RNK04010 (BODIPY-labeled), were applied to assess the binding capabilities of CHAMP molecules to HSP90.

Row | Structure (SMILES) | pIC50
1 | CCc1cc(-c2nnc(O)n2-c2ccc(CN3CCN(CC4CCN(C(=O)C[C@@H]5N=C(c6ccc(Cl)cc6)c6c(sc(C)c6C)-n6c(C)nnc65)CC4)CC3)c(F)c2)c(O)cc1O [Compound 53] | 6.00 to 7.00
2 | Cc1cc(-c2nnc(O)n2-c2ccc(CN3CCN(CC4CCN(C(=O)C[C@@H]5N=C(c6ccc(Cl)cc6)c6c(sc(C)c6C)-n6c(C)nnc65)CC4)CC3)c(F)c2)c(O)cc1O [Compound 54] | 6.00 to 7.00
3 | CCOc1cc(N2CCC(C(=O)NCOCCN3CCC(Cc4ccc(-n5c(O)nnc5-c5cc(C(C)C)c(O)cc5O)cc4)CC3)CC2)ccc1Nc1ncc2c(n1)N(C)c1ccccc1C(=O)N2C [Compound 111] | 6.00 to 7.00
4 | CCOc1cc(N2CCC(C(=O)NCCOCCOc3ccc(-n4c(O)nnc4-c4cc(CC)c(O)cc4O)cc3)CC2)ccc1Nc1ncc2c(n1)N(C)c1ccccc1C(=O)N2C [Compound 112] | 6.00 to 7.00

Continued, values first:

Row | pIC50 | Structure (SMILES)
5 | 6.00 to 7.00 | Cc1sc2c(c1C)C(c1ccc(Cl)cc1)=N[C@@H](CC(=O)NCCOCCN1CCC(Cc3ccc(-n4c(O)nnc4-c4cc(C(C)C)c(O)cc4O)cc3)CC1)c1nnc(C)n1-2 [Compound 9]
6 | 6.00 to 7.00 | Cc1sc2c(c1C)C(c1ccc(Cl)cc1)=N[C@@H](CC(=O)NCCOc1ccccc1CN(C)Cc1ccc(-n3c(O)nnc3-c3cc(C(C)C)c(O)cc3O)cc1)c1nnc(C)n1-2 [Compound 14]
7 | 6.00 to 7.00 | Cc1sc2c(c1C)C(c1ccc(Cl)cc1)=N[C@@H](CC(=O)NCCOc1ccc(CN(C)Cc3ccc(-n4c(O)nnc4-c4cc(C(C)C)c(O)cc4O)cc3)cc1)c1nnc(C)n1-2 [Compound 21]
8 | 6.00 to 7.00 | Cc1sc2c(c1C)C(c1ccc(Cl)cc1)=N[C@@H](CC(=O)NCC(=O)NCCOc1ccc(-n3c(O)nnc3-c3cc(C(C)C)c(O)cc3O)cc1)c1nnc(C)n1-2 [Compound 24]
9 | 6.00 to 7.00 | Cc1sc2c(c1C)C(c1ccc(Cl)cc1)=N[C@@H](CC(=O)N1CCC(CCN3CCN(c4ccc(-n5c(O)nnc5-c5cc(C(C)C)c(O)cc5O)cc4)CC3)CC1)c1nnc(C)n1-2 [Compound 28]
10 | 6.00 to 7.00 | Cc1sc2c(c1C)C(c1ccc(Cl)cc1)=N[C@@H](CCNCc1ccc(-n3c(O)nnc3-c3cc(C(C)C)c(O)cc3O)cc1)c1nnc(C)n1-2 [Compound 31]
11 | 6.00 to 7.00 | Cc1sc2c(c1C)C(c1ccc(Cl)cc1)=N[C@@H](CC(=O)N[C@@H](C)c1ccc(CN3CCN(Cc4ccc(-n5c(O)nnc5-c5cc(C(C)C)c(O)cc5O)cc4)CC3)cc1)c1nnc(C)n1-2 [Compound 38]
12 | > 7.00 | CCc1cc(-c2nnc(O)n2-c2ccc(CN3CCN(CC4CCN(C(=O)C[C@@H]5N=C(c6ccc(Cl)cc6)c6c(sc(C)c6C)-n6c(C)nnc65)CC4)CC3)cc2)c(O)cc1O [Compound 41]
13 | 6.00 to 7.00 | Cc1sc2c(c1C)C(c1ccc(Cl)cc1)=N[C@@H](CC(=O)N[C@@H](C)c1ccc(CN3CCC(Cc4ccc(-n5c(O)nnc5-c5cc(C(C)C)c(O)cc5O)cc4)CC3)cc1)c1nnc(C)n1-2 [Compound 44]

Each compound was assayed against T1, HSP90α protein (N-terminal) (assay: HSP90α-binding fluorescent polarization (FP) assay, competition with BODIPY-labeled RNK04010). Conditions: probe RNK04010 (BODIPY-labeled) 5 nM, 25° C. 300 min.
Method: as §1, §2

Row | pIC50 | Structure (SMILES)
14 | < 6.00 | CCOc1cc(N2CCC(C(=O)N3CCN(C(=O)O[C@H]4CC[C@H](Nc5cc(-n6nc(C(F)(F)F)c7c6CC(C)(C)CC7=O)ccc5C(N)=O)CC4)CC3)CC2)ccc1Nc1ncc2c(n1)N(C)c1ccccc1C(=O)N2C [Compound 152]
15 | < 6.00 | Cc1sc2c(c1C)C(c1ccc(Cl)cc1)=N[C@@H](CC(=O)NCCOCCNC(=O)O[C@H]1CC[C@H](Nc3cc(-n4nc(C(F)(F)F)c5c4CC(C)(C)CC5=O)ccc3C#N)CC1)c1nnc(C)n1-2 [Compound 154]
16 | < 6.00 | CCOc1cc(N2CCC(C(=O)N3CCC(COc4ccc(Nc5cc(-n6nc(C(F)(F)F)c7c6CC(C)(C)CC7=O)ccc5C(N)=O)cc4)CC3)CC2)ccc1Nc1ncc2c(n1)N(C)c1ccccc1C(=O)N2C [Compound 159]
17 | < 6.00 | Cc1sc2c(c1C)C(c1ccc(Cl)cc1)=N[C@@H](CC(=O)NCCOCCOCCOCCOc1ccc(Nc3cc(-n4nc(C(F)(F)F)c5c4CC(C)(C)CC5=O)ccc3C(N)=O)cc1)c1nnc(C)n1-2 [Compound 162]
18 | < 6.00 | Cc1sc2c(c1C)C(c1ccc(Cl)cc1)=N[C@@H](CC(=O)NCCOCCN[C@@H](C)C(=O)N[C@H](C(=O)N1CCC[C@H]1C(=O)Nc1snnc1-c1ccccc1)C1CCCCC1)c1nnc(C)n1-2 [Compound 167]
